Measurements taken from PubChem BioAssay (NCI).
Values joined by “and” are separate entries in the source; they are usually repeats but may differ in a detail not shown here. Equal entries are not always repeated.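 Method: 48-hour compound exposure of cells in 96-well plates, five concentrations, linear interpolation of endpoints. Here, GI50 denotes the concentration required for 50% inhibition of growth. The concentration for full growth arrest is given as TGI.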

Assays:
Test in all cases: inhibition of tumour cell growth, NCI panel, 48 h
[1] = tested on: SN12C renal
[2] = tested on: HOP-92 NSCLC
[3] = tested on: HOP-62 NSCLC
[4] = tested on: NCI-H226 lung
[5] = tested on: HT29 colon
[6] = tested on: OVCAR-4 ovarian
[7] = tested on: SK-MEL-5 melanoma
[8] = tested on: IGROV1 ovarian
[9] = tested on: A498 renal
[10] = tested on: MDA-MB-435

SMILES | TGI [1] [µM] | TGI [2] | TGI [3] | TGI [4] | TGI [5] [µM] | TGI [6] [µM] | TGI [7] | TGI [8] | TGI [9] | GI50 [1] [µM] | GI50 [3] [µM] | GI50 [4] [µM] | GI50 [10] [µM] | TGI [10] [µM] | GI50 [5] [µM] | GI50 [6] | GI50 [7] | GI50 [8] [µM] | GI50 [9] [µM] | GI50 [2] [µM]
N/C(=N\NS(=O)(=O)c1ccccc1)Oc1ccc(Br)cc1Br | > 100 | > 100 µM | > 100 µM | > 100 µM | > 100 | > 100 | > 100 µM | > 100 µM | > 100 µM |  |  |  |  |  |  |  |  |  |  | 
CCCCCN(CCCCC)CC(O)c1cc(Cl)ccc1OC (stereo unspecified) | 28.8 |  | 26.7 µM | 23.6 µM | 12 | 16 | 18.5 µM | 15.1 µM | 29.3 µM | 10.5 | 12 | 9.79 | 8.53 | 21.1 | 0.683 | 3.17 µM | 5.75 µM | 3 | 11.6 | 
C[Si](C)(C)C(CCCCSc1ccccc1)(Sc1ccccc1)Sc1ccccc1 | > 100 | > 100 µM |  |  |  | > 100 | > 100 µM |  | > 100 µM |  |  |  |  |  |  |  |  |  |  | 
Cc1c(C(=O)/C=C/C=C/c2ccccc2)[n+](=O)c2ccccc2n1[O-] | 73.2 | 89.1 µM | 54.5 µM | > 100 µM |  | > 100 | 44.4 µM | 65.5 µM | > 100 µM |  |  |  |  |  |  |  |  |  |  | 
O=C(O)c1cc(=O)c2c([nH]c3ccccc32)s1 | > 100 | > 100 µM | > 100 µM |  |  | > 100 | > 100 µM | > 100 µM |  |  |  |  |  |  |  |  |  |  |  | 
COC(=O)C1=C(CS(=O)c2ccc([N+](=O)[O-])cc2[N+](=O)[O-])C2C=CC1C2 (stereo unspecified) | 50.2 |  | > 100 µM | 98.4 µM | 35.2 | 67.1 | > 100 µM | > 100 µM | > 100 µM |  |  |  |  |  |  |  |  |  |  | 
O=C1OC(c2ccccc2)=N/C1=C\c1ccc(Oc2ccc(Cl)c(Cl)c2)cc1 | > 100 | > 100 µM | > 100 µM |  | > 100 |  | 81.6 µM | > 100 µM | > 100 µM |  |  |  |  |  |  |  |  |  |  | 
Cc1cc(NC(=O)C2C3C=CC(O3)C2C(=O)O)no1 (stereo unspecified) | > 100 | > 100 µM | > 100 µM | > 100 µM | > 100 | > 100 | > 100 µM | > 100 µM | > 100 µM |  |  |  |  |  |  |  |  |  |  | 
NNc1cnn(-c2ccccc2)c(=O)c1Cl | > 100 | > 100 µM | > 100 µM | > 100 µM | > 100 | > 100 | > 100 µM | > 100 µM | > 100 µM |  |  |  |  |  |  |  |  |  |  | 
CN(C)c1nc(=NCc2ccco2)ss1 | 57.2 |  | 62.8 µM | > 91.5 µM | 20.4 | 51.7 | > 100 µM | > 100 µM | > 100 µM |  |  |  |  | 42.3 |  |  |  |  |  | 
Cc1ccc(S(=O)(=O)N=NC=C2c3ccccc3N(O)c3ccccc32)cc1 | 16.6 | 19.5 µM | 18.8 µM | 29 µM | 13.2 | 22.8 | 18.8 µM | 27.1 µM | 13.9 µM |  |  |  |  |  |  |  |  |  |  | 
O=C(C#Cc1ccccc1)N1c2ccccc2CC1c1c[nH]c2ccccc12 (stereo unspecified) | 26.9 | 32.5 µM | 26.9 µM | 25.8 µM | 40.6 | 69.6 | 30 µM | 25.3 µM | 73 µM |  |  |  |  |  |  |  |  |  |  | 
CCOC(=O)CN(Cn1cncn1)Cn1cncn1 | 85.3 | > 100 µM | > 100 µM | 79.2 µM | > 100 | > 100 | 53.7 µM | > 100 µM |  |  |  |  |  |  |  |  |  |  |  | 
COC(=O)C12CC(NC(=O)c3csc([C@@H](C[C@H](C(C)C)N(C)C(=O)[C@@H](NC(=O)[C@H]4CCCCN4C)C4CC4)OC(C)=O)n3)(C1)C2 | > 16.7 |  | > 16.7 µM | > 16.7 µM | > 16.7 | > 16.7 | 0.449 µM | > 16.7 µM | > 4.46 µM | 0.0207 | 0.0347 | 0.582 | 0.00243 | 0.0197 | 0.0134 | 0.427 µM | 0.023 µM | 0.0126 | 0.0833 | 
CCc1cccc(C)c1NC(=O)CCc1nnc2s/c(=C\c3cccc4ccccc34)c(=O)n12 | > 100 | > 100 µM | > 100 µM | > 100 µM | > 100 | > 100 | > 100 µM | > 100 µM | > 100 µM |  |  |  |  |  |  |  |  |  |  | 
CC(=O)NC(CCCCN)C(=O)NCc1ccccc1 (stereo unspecified) | > 100 | > 100 µM | > 100 µM | > 100 µM | > 100 | > 100 | > 100 µM | > 100 µM | > 100 µM |  |  |  |  |  |  |  |  |  |  | 
CC(C)(O)/C=C/C(=O)[C@](C)(O)[C@H]1[C@H](O)C[C@@]2(C)[C@@H]3CC=C4[C@@H](C[C@H](O)C(=O)C4(C)C)[C@]3(C)C(=O)C[C@]12C | 28 | 0.439 µM and 0.407 µM | 0.699 µM and 0.547 µM | 0.642 µM and 0.913 µM | 18.3 |  | 0.682 µM and 2.44 µM | 0.479 µM and 1.22 µM | 0.244 µM and 0.115 µM | 0.355 | 0.337 | 0.174 |  |  | 0.0623 | 0.161 µM and 0.891 µM | 0.0565 µM and 0.11 µM | 0.211 | 0.0909 | 0.255
COc1ccc(Nc2nc3ccccc3c3occc23)cc1 | 17.5 | 21.8 µM | 23.7 µM |  |  | 39.7 | 11.1 µM | > 50 µM |  | 7.37 | 10 |  | 1.63 | 5.59 |  | 9.2 µM | 5.08 µM | 37.4 |  | 7.62
CCn1c(-c2cc3c([nH]c4ccccc43)c(-c3cccc(O)c3)n2)n[nH]c1=S | 22.1 |  | 16 µM | 55.8 µM | 6.97 | 13.1 | 3.06 µM | 35.5 µM | 4.38 µM | 4.02 | 4.71 | 6.45 | 0.0496 | 2.94 | 2.74 | 3.12 µM | 1.45 µM | 4.23 | 0.327 | 
O=c1cccccc1NCCCCCCCNc1cccccc1=O | > 100 | 97.8 µM | > 100 µM | > 100 µM | > 100 | > 100 |  | > 100 µM |  |  |  |  |  |  |  |  |  |  |  | 
